# Measured values: PMC7343746, “(2S, 4R)-4-[^18F]Fluoroglutamine for In vivo PET Imaging of Glioma Xenografts in Mice: an Evaluation of Multiple Pharmacokinetic Models” (Molecular Imaging and Biology, 2020)
# Where “and” joins values, the source holds several entries; their conditions need not be identical. Equal values may be shown once.
# How the values were obtained:
# rat BT4C glioma cells [1] = assay: Ex vivo biodistribution; type: in vivo, Foxn1^nu/nu mouse; details: higher than subcutaneous tumor
# Excerpt: See Suppl. Materials in ESM for detailed descriptions of biodistribution, stability, cryosectioning, autoradiography, and histology.
# Ex Vivo Biodistribution Results
# The tracer accumulated highly in the pancreatic tissue with notable high uptake in the skull (bo ne) and femur (bone + marrow). The bone uptake is classically characteristic of defluorination occurring which leads to absorption into the osseous tissue. […]
# adipose tissue likely due to the comparative increased number of metabolic processes which encompass its cell type characteristics.
# Supplemental Fig. 11. Ex vivo biodistribution averages of [ 18F]FGln uptake 63 minutes post-injection in subcutaneously xenografted BT4C tumor bearing Foxn1 nu/nu mice (female, n = 5) and control C57BL/6JRj […]
# [2] = system: patient-derived BT3 glioma cells; assay: In vivo PET imaging of orthotopic glioma xenografts; parameters: species or system BALB/cOlaHsd-Foxn1^nu mouse; details: for PET TBRmean: orthotopic glioma
# Excerpt: The intracranial glioma model was made by injecting female BALB/cOlaHsd-Foxn1^nu (athymic nude, Institute of Animal Genetics, Edinburgh, UK) mice with patient-derived BT3 glioma cells labeled with luciferase into the frontal right hemisphere of the brain at 9 weeks old. Tumors were monitored for growth via in vivo bioluminescence detection and subjects PET imaged after 12 days.
# (§1) One to two mice were imaged at a time while under 2 % isoflurane anesthesia with an Inveon multimodality small animal PET/CT scanner (Siemens Medical Solutions, Munich, Germany) commencing with an attenuation CT scan to correct the PET scan data. Ten to twelve megabequerels of the tracer was injected into the tail vein, and the subject(s) were imaged over a 60-min period in list mode dividing framing into 6 × 10 s, 4 × 60 s, 5 × 300 s, 3 × 600 s. Obtained sinograms were reconstructed using the ordered-subset expectation maximization 2-dimensional algorithm to obtain the final PET images and back-corrected for radionuclide decay.
# Image analysis was performed using CARIMAS software published and freely distributed by the Turku PET Center (http://turkupetcentre.fi/carimas/). CT scans were used as rough anatomical reference while tumor regions of interest (ROI) were hand-drawn based upon observed spikes of radioactivity in the PET images at locations correlating with recorded tumor grafts. Control muscle ROIs were drawn on the side opposite to the tumor in the leg flank muscle (based on CT) while the blood ROI was drawn based upon heart anatomical location and observed PET image radioactivity spike during the initial 20 s of imaging in the left ventricle. […] Mean and maximum TBR values were reported as ROI radioactivity per volume divided by mean background radioactivity per volume. The blood radioactivity SUV and gender-specific metabolite-corrected blood radioactivity SUV were then applied to multiple pharmacokinetic models to characterize the flux of the tracer (further described in the “Modeling” section).
# [3] = system: patient-derived BT3 glioma cells; assay: Logan plot (reversible uptake model), orthotopic model; type: in vivo, BALB/cOlaHsd-Foxn1^nu mouse; details: for Logan DV (AB) distribution volume / Logan Ic (AB) y intercept: AB input; for Logan DV (PC) distribution volume / Logan IC (PC) y intercept: PC input
# Description: (§2) Image analysis was performed using CARIMAS software published and freely distributed by the Turku PET Center (http://turkupetcentre.fi/carimas/). CT scans were used as rough anatomical reference while tumor regions of interest (ROI) were hand-drawn based upon observed spikes of radioactivity in the PET images at locations correlating with recorded tumor grafts. Control muscle ROIs were drawn on the side opposite to the tumor in the leg flank muscle (based on CT) while the blood ROI was drawn based upon heart anatomical location and observed PET image radioactivity spike during the initial 20 s of imaging in the left ventricle. Standardized uptake values (SUV) were calculated with respect to ROI volume, mean and max tumor radioactivity, total injected radioactivity dose (corrected for tail, cannula, and syringe residual radioactivity), and animal weight, and were additionally presented as tumor-to-background ratio (TBR, tumor-to-healthy brain region for intracranial gliomas and tumor-to-muscle for subcutaneous gliomas) as defined by recent glioma research literature standards. Mean and maximum TBR values were reported as ROI radioactivity per volume divided by mean background radioactivity per volume. The blood radioactivity SUV and gender-specific metabolite-corrected blood radioactivity SUV were then applied to multiple pharmacokinetic models to characterize the flux of the tracer (further described in the “Modeling” section).
# (§3) Using the heart’s left ventricle ROI from the PET data as an uncorrected radioactivity level input and the bioavailable parent-tracer fraction (results: Eqs. 3 and 4 applied to the uncorrected input) as the corrected input, multiple models were investigated to characterize the tissue uptake dynamics. Two-compartment modeling and Logan, Patlak, and Yokoi plots were used to separately model the pharmacokinetics for the gliomas (both subcutaneous and orthotopic loci) and their respective control tissues (healthy muscle and healthy brain, respectively). Where indicated, means plus/minus standard deviations are reported. Difference in parameters for uncorrected versus correct and target tissue versus their respective control regions were tested with students’ paired t tests with P values lower than 0.05 being considered significant.
# rat BT4C glioma cells [4] = assay: In vivo PET imaging of subcutaneous glioma xenografts; parameters: species or system Foxn1^nu/nu mouse; details: for Tumor-to-background muscle ratio: at uptake plateau around 12.5 min
# Excerpt: The subcutaneous tumor model was created by injecting rat BT4C glioma cells subcutaneously into the hind leg and neck region of six athymic nude (Foxn1^nu/nu, Envigo, Gannant, France) mice at 7 weeks old. Tumor growth was visually tracked and subjects PET imaged after 5 weeks. See Electronic Supplemental Materials (ESM) for detailed animal models.
# as §1, §2
# rat BT4C glioma cells [5] = assay: 2-Compartment model, subcutaneous model; type: in vivo, Foxn1^nu/nu mouse
# Description: as §2, §3
# [6] = Bone (femoral condyle) average (n = 6), arterial blood input
# [7] = Bone (femoral condyle) average (n=6), plasma-corrected input
# [8] = Flank muscle average (n = 6), arterial blood input
# [9] = Flank muscle average (n=6), plasma-corrected input
# [10] = Flank tumor average (n = 6), arterial blood input
# [11] = Flank tumor average (n=6), plasma-corrected input
# [12] = Neck tumor average (n = 6), arterial blood input
# [13] = Neck tumor average (n=6), plasma-corrected input
smiles,measurement,setting,value
"NC(=O)[C@H]([18F])C[C@H](N)C(=O)O [[^18F]FGln, (2S, 4R)-4-[^18F]fluoroglutamine]",Pancreas uptake relative to tumor,rat BT4C glioma cells [1],6 fold
same,PET TBRmean,[2]; Subject A,4.8
same,PET TBRmean,[2]; Subject B,3.6
same,PET image tumor-to-healthy brain region ratio,[2]; orthotopic human glioma xenografts,3.6 and 4.8
same,Logan DV (AB) distribution volume,[3]; Subject A brain (control),1.61
same,Logan Ic (AB) y intercept,[3]; Subject A brain (control),-14.15
same,Logan DV (PC) distribution volume,[3]; Subject A brain (control),2.97
same,Logan IC (PC) y intercept,[3]; Subject A brain (control),-25.16
same,Logan DV (AB) distribution volume,[3]; Subject A glioma max.,0.34
same,Logan Ic (AB) y intercept,[3]; Subject A glioma max.,-18.72
same,Logan DV (PC) distribution volume,[3]; Subject A glioma max.,0.67
same,Logan IC (PC) y intercept,[3]; Subject A glioma max.,-34.83
same,Logan DV (AB) distribution volume,[3]; Subject A o.t. glioma,1.51
same,Logan Ic (AB) y intercept,[3]; Subject A o.t. glioma,-19.69
same,Logan DV (PC) distribution volume,[3]; Subject A o.t. glioma,2.97
same,Logan IC (PC) y intercept,[3]; Subject A o.t. glioma,-36.03
same,Logan Ic (AB) y intercept,[3]; Subject B brain (control),-61.91
same,Logan DV (PC) distribution volume,[3]; Subject B brain (control),2.57
same,Logan IC (PC) y intercept,[3]; Subject B brain (control),-50.78
same,Logan DV (AB) distribution volume,[3]; Subject B glioma max.,1.27
same,Logan Ic (AB) y intercept,[3]; Subject B glioma max.,-26.85
same,Logan DV (PC) distribution volume,[3]; Subject B glioma max.,0.60
same,Logan IC (PC) y intercept,[3]; Subject B glioma max.,-36.40
same,Logan DV (AB) distribution volume,[3]; Subject B o.t. glioma,0.32
same,Logan Ic (AB) y intercept,[3]; Subject B o.t. glioma,-20.23
same,Logan DV (PC) distribution volume,[3]; Subject B o.t. glioma,1.95
same,Logan IC (PC) y intercept,[3]; Subject B o.t. glioma,-41.27
same,Tumor-to-background muscle ratio,rat BT4C glioma cells [4]; flank locus,2.0 ± 0.8
same,Tumor-to-background muscle ratio,rat BT4C glioma cells [4]; neck locus,1.8 ± 0.6
same,PET tumor-to-muscle (flank) ratio,"rat BT4C glioma cells [4]; subcutaneous BT4C gliomas, n = 12",1.9 ± 0.7
same,Time at which tracer uptake plateaued,rat BT4C glioma cells [4]; subcutaneous BT4C tumors,around 12.5 min
same,2-Compartment K1,rat BT4C glioma cells [5]; [6],0.309 ± 0.179 mL min-1 mL-1
same,2-Compartment K1/k2,rat BT4C glioma cells [5]; [6],0.745 ± 0.194 mL mL-1
same,2-Compartment Vb,rat BT4C glioma cells [5]; [6],5.45 ± 2.53%
same,2-Compartment k3,rat BT4C glioma cells [5]; [6],0.075 ± 0.034 min⁻¹
same,2-Compartment k3*K1/k2,rat BT4C glioma cells [5]; [6],0.052 ± 0.017
same,2-Compartment k3/(k2+k3),rat BT4C glioma cells [5]; [6],0.171 ± 0.083
same,2-Compartment K1,rat BT4C glioma cells [5]; [7],0.402 ± 0.206 mL min-1 mL-1
same,2-Compartment K1/k2,rat BT4C glioma cells [5]; [7],0.649 ± 0.191 mL mL-1
same,2-Compartment Vb,rat BT4C glioma cells [5]; [7],3.21 ± 3.57%
same,2-Compartment k3,rat BT4C glioma cells [5]; [7],0.148 ± 0.063 min⁻¹
same,2-Compartment k3*K1/k2,rat BT4C glioma cells [5]; [7],0.086 ± 0.024
same,2-Compartment k3/(k2+k3),rat BT4C glioma cells [5]; [7],0.198 ± 0.079
same,2-Compartment K1,rat BT4C glioma cells [5]; [8],0.079 ± 0.027 mL min-1 mL-1
same,2-Compartment K1/k2,rat BT4C glioma cells [5]; [8],0.564 ± 0.130 mL mL-1
same,2-Compartment Vb,rat BT4C glioma cells [5]; [8],2.33 ± 1.07%
same,2-Compartment k3,rat BT4C glioma cells [5]; [8],0.009 ± 0.005 min⁻¹
same,2-Compartment k3*K1/k2,rat BT4C glioma cells [5]; [8],0.005 ± 0.002
same,2-Compartment k3/(k2+k3),rat BT4C glioma cells [5]; [8],0.061 ± 0.038
same,2-Compartment K1,rat BT4C glioma cells [5]; [9],0.081 ± 0.027 mL min-1 mL-1
same,2-Compartment K1/k2,rat BT4C glioma cells [5]; [9],0.797 ± 0.163 mL mL-1
same,2-Compartment Vb,rat BT4C glioma cells [5]; [9],2.8 ± 1.12%
same,2-Compartment k3,rat BT4C glioma cells [5]; [9],0.015 ± 0.005 min⁻¹
same,2-Compartment k3*K1/k2,rat BT4C glioma cells [5]; [9],0.012 ± 0.003
same,2-Compartment k3/(k2+k3),rat BT4C glioma cells [5]; [9],0.136 ± 0.055
same,2-Compartment K1,rat BT4C glioma cells [5]; [10],0.147 ± 0.028 mL min-1 mL-1
same,2-Compartment K1/k2,rat BT4C glioma cells [5]; [10],0.973 ± 0.187 mL mL-1
same,2-Compartment Vb,rat BT4C glioma cells [5]; [10],5.59 ± 2.78%
same,2-Compartment k3,rat BT4C glioma cells [5]; [10],0.005 ± 0.004 min⁻¹
same,2-Compartment k3*K1/k2,rat BT4C glioma cells [5]; [10],0.004 ± 0.003
same,2-Compartment k3/(k2+k3),rat BT4C glioma cells [5]; [10],0.028 ± 0.021
same,2-Compartment K1,rat BT4C glioma cells [5]; [11],0.148 ± 0.027 mL min-1 mL-1
same,2-Compartment K1/k2,rat BT4C glioma cells [5]; [11],1.369 ± 0.273 mL mL-1
same,2-Compartment Vb,rat BT4C glioma cells [5]; [11],6.64 ± 3.1%
same,2-Compartment k3,rat BT4C glioma cells [5]; [11],0.010 ± 0.004 min⁻¹
same,2-Compartment k3*K1/k2,rat BT4C glioma cells [5]; [11],0.013 ± 0.003
same,2-Compartment k3/(k2+k3),rat BT4C glioma cells [5]; [11],0.086 ± 0.028
same,2-Compartment K1,rat BT4C glioma cells [5]; [12],0.202 ± 0.079 mL min-1 mL-1
same,2-Compartment K1/k2,rat BT4C glioma cells [5]; [12],1.129 ± 0.141 mL mL-1
same,2-Compartment Vb,rat BT4C glioma cells [5]; [12],8.28 ± 5.95%
same,2-Compartment k3,rat BT4C glioma cells [5]; [12],0.002 ± 0.002 min⁻¹
same,2-Compartment k3*K1/k2,rat BT4C glioma cells [5]; [12],0.002 ± 0.002
same,2-Compartment k3/(k2+k3),rat BT4C glioma cells [5]; [12],0.015 ± 0.013
same,2-Compartment K1,rat BT4C glioma cells [5]; [13],0.202 ± 0.072 mL min-1 mL-1
same,2-Compartment K1/k2,rat BT4C glioma cells [5]; [13],1.567 ± 0.209 mL mL-1
same,2-Compartment Vb,rat BT4C glioma cells [5]; [13],9.79 ± 6.85%
same,2-Compartment k3,rat BT4C glioma cells [5]; [13],0.008 ± 0.002 min⁻¹
same,2-Compartment k3*K1/k2,rat BT4C glioma cells [5]; [13],0.013 ± 0.002
same,2-Compartment k3/(k2+k3),rat BT4C glioma cells [5]; [13],0.065 ± 0.026
